The data set has as its system EpiDerm™ SIT (EPI-200). Kind of data set: Skin irritation test, OECD 439. The following applies: test group 50 μM, positive control 5% solution, average of 3 repeats. The procedure: In the present evaluation, the EpiDerm™ SIT (EPI-200) was used for skin irritation tests following the OECD 439 test guidelines.
In the skin irritation test, the double nitrosyl-iron complex at a concentration of 50 μM was used as the test group, Dulbecco's Phosphate-Buffered Saline (DPBS) was used as the negative control group, and 5% of sodium dodecyl sulfate (SDS) solution was used as a positive control group. The test was repeated 3 times, and the average value was used for evaluation.

Turning to `CCCCCCCCCCCCOS(=O)(=O)[O-].[Na+]` [sodium dodecyl sulfate (SDS), sodium dodecyl sulfate], the tissue survival rate is given as 15.11%.

The record behind these values is US11883517B2, “External dermal composition and method for beautifying skin” (National Tsing Hua University, priority 2021, dated 2024).
